Data from publication PMC7582727, “Functional Impact of BeKm-1, a High-Affinity hERG Blocker, on Cardiomyocytes Derived from Human-Induced Pluripotent Stem Cells” (International Journal of Molecular Sciences, 2020).
Entries after “also recorded” stand apart in the source; their conditions may differ. Positions of bridges follow the written chain, without caps; N, C: chain ends. Residues, ends and D or L forms follow the SMILES beside them.

Experiments:
hiPS-CMs = assay: Intracellular Ca^2+ transients in hiPS-CMs (Fluo-4, confocal); assay type: cell-based, human; settings: 5 nM
Method: As Ca^2+ influx abnormalities are likely to be at the root of electrophysiological disorders observed in the presence of BeKm-1, we sought to investigate the effects of this compound on hiPS-CM calcium dynamics. In order to test this, intracellular Ca^2+ transients (CaT) were monitored by confocal microscopy using the Fluo4 Ca^2+-sensitive dye in presence of 5 nM BeKm-1. […] The average interval was raised from 3.3 ± 1.7 sec (n = 8, vehicle) to 4.9 ± 2.2 sec (n = 8, 5 nM BeKm-1) (Figure S4C). In addition, we observed a reduction of CaT amplitude from 1.8 ± 0.2 (n = 8, vehicle) to 0.8 ± 0.2 (n = 8, 5 nM BeKm-1) (Figure S4D). […] The altered shape of the CaT was due to a slower time to peak (1.1 ± 0.1 s with vehicle vs. 2.2 ± 0.4 s with 5 nM BeKm-1, n = 8) (Figure S4E), possibly indicating a slower release from internal stores associated to a reduced entry by VGCC (largely due to the impact of RMP depolarization).
(§1) hiPS-CMs: All experiments were performed on the human-induced pluripotent stem cell (hiPSC) clone C2a that has been previously characterized, including cardiac differentiation and electrophysiology data. Cells were expanded on stem cell-qualified matrigel-coated plates (0.05 mg/mL; BD Bioscience, Le Pont de Claix, France) and cultured in StemMACS iPS-BREW XF medium (Miltenyi Biotec, Paris, France). Cells were passaged every […] using Gentle Cell Dissociation Buffer (StemCell Technologies, Grenoble, France). Prior to differentiation, cells were cultured as a monolayer in StemMACS iPS-brew supplemented with 1 × Y-27632 Rho-associated, coiled-coil containing protein kinase (ROCK) inhibitor (StemCell Technologies, Grenoble, France). When hiPSCs reached proper confluence, they were differentiated into cardiomyocytes using previously described « Matrix sandwich » protocol. At day 20 ± 1 of differentiation, beating cardiomyocytes were manually dissected and isolated from non-beating cells. Briefly, cardiomyocytes were washed with phosphate-buffered saline (PBS) and treated with TrypLE Express (10x) (Thermo Fisher Scientific, Illkirch-Graffenstaden, France) for 5 min at 37 °C. The enzyme was inactivated by adding RPMI1640 medium containing 20% (vol/vol) KnockOut Serum Replacement (KSR) (Thermo Fisher Scientific, Illkirch-Graffenstaden, France). The supernatant was removed, and cells were suspended in RPMI1640 medium containing 20% (vol/vol) KSR and ROCK inhibitor. Then, the cells were plated on specific supports suitable for functional assessments.
Calcium transients of hiPS-CMs were evaluated using the Fluo-4 reported dye and a Nikon A1R confocal microscope. Dissociated hiPS-CMs were plated and maintained on µ-slide 8-well IBIDI plates for 12 ± 1 days prior to experiments. On the day of the experiments, cells were loaded for 20 min with 3 µM Fluo-4 AM Ca^2+ indicator (Thermo Fisher Scientific, Illkirch-Graffenstaden, France) in culture medium at 37 °C. Then, to allow complete de-esterification of the Ca^2+ probe, the medium was replaced and cells were re-incubated at 37 °C for another 20 min. All recordings were performed in Tyrode’s solution, cells being placed at 37 °C in an experimental chamber. Confocal microscopy was performed using a Nikon A1R confocal inverted microscope (Nikon Corp, Tokyo, Japan) with a Nikon X60 Plan-Apo numerical aperture 1.4 oil-immersion objective (MicroPICell core facility). Fluo-4 AM was excited using the 488 nm line from an argon laser and fluorescence emission was measured at >505 nm. Images were acquired between 15.5 and 56.4 frames/s in X-Y mode, with a resolution of 1024 × 1024 pixels ([…]).

[1] = test system: hiPS-CMs (clone C2a, ventricular-like); assay: Manual patch-clamp of spontaneous action potentials in hiPS-CMs; assay type: cell-based, human
Description: For this study, we used a non-commercial hiPS cell clone (C2a) that has been fully characterized earlier in the laboratory. The properties of the cardiomyocytes derived from this clone may differ to some extent from those of commercial clones, but this should not affect the nature of the conclusions derived from our investigations. […] The effects on AP characteristics also included the depolarization of the maximum diastolic potential (MDP) from −52.2 ± 1.7 mV to −36.1 ± 2.3 mV (n = 7, Figure 2D) and the decrease of maximal upstroke velocity from 6.9 ± 0.9 mV/s (vehicle, n = 7) to 4.6 ± 0.9 mV/s (BeKm-1, n = 7), representing an average 1.5-fold reduction (Figure 2E). […] The action potential duration (APD) at 30% and 50% of repolarization were spared, which is consistent with the role of hERG in the late phase of repolarization in these cells (Figure 2G). In contrast, BeKm-1 was able to delay the repolarization of these cells, increasing the APD at 90% repolarization (APD90) from 95.0 ± 8.4 ms (vehicle, n = 7) to 117.4 ± 11.3 ms (BeKm-1, n = 7; 23% increase) (Figure 2G). While these values could theoretically be corrected for the BeKm-1-induced variability in cycle length (Figure 2C) using the Fridericia cube root formula, the corrected data would be meaningless because of the additional depolarization in MDP (Figure 2D).
as §1
Manual patch clamp: Single-cell dissociated hiPS-CMs were plated at low density on matrigel-coated 35 mm Petri dishes (Nunc from Thermo Fisher Scientific, Illkirch-Graffenstaden, France). Electrophysiological experiments were performed 12 to 14 days after dissociation. APs were recorded in the current-clamp mode, using the amphotericin-B-perforated patch-clamp technique. All experiments were conducted at 37 °C. APs were recorded either at basal state (spontaneous APs) or using the dynamic patch-clamp method to electronically mimic the expression of the inward rectifier potassium current, IK1 [23, 24]. The resting membrane potential (RMP) was set to −80 ± 5 mV by injecting 2 to 2.8 pA/pF in silico IK1 density. This level of current was set so that about 80% of the ventricular-like hiPS-CMs could reach these physiological RMP values. The remaining cells were discarded from the recording process. […]

rabbit heart = test system: rabbit heart; parameters: method as in PMID 21205913; settings: ref [8]; cited from earlier work

## CC[C@H](C)[C@H](NC(=O)[C@H](CC(=O)O)NC(=O)[C@@H](NC(=O)[C@@H]1CCCN1C(=O)[C@@H](N)CCCNC(=N)N)[C@@H](C)O)C(=O)N[C@@H](CCCCN)C(=O)N[C@H]1CSSC[C@@H]2NC(=O)[C@H](CCCNC(=N)N)NC(=O)CNC(=O)[C@H](CC(N)=O)NC(=O)[C@H]([C@@H](C)O)NC(=O)[C@H](CCCCN)NC(=O)CNC(=O)[C@H](Cc3ccccc3)NC(=O)[C@H](CCCNC(=N)N)NC(=O)[C@H](CO)NC(=O)[C@H](CCCCN)NC(=O)[C@@H]3CSSC[C@@H](C(=O)N[C@@H](Cc4ccccc4)C(=O)O)NC(=O)[C@H](CC(=O)O)NC(=O)[C@H](CSSC[C@H](NC(=O)[C@H](CCC(N)=O)NC(=O)[C@H](Cc4ccc(O)cc4)NC(=O)[C@H](CO)NC(=O)[C@H](CCC(=O)O)NC(=O)[C@H](CO)NC1=O)C(=O)N[C@@H](Cc1ccccc1)C(=O)N1CCC[C@H]1C(=O)N[C@@H](C(C)C)C(=O)N3)NC(=O)[C@H](Cc1ccccc1)NC(=O)CNC(=O)[C@H](CC(N)=O)NC(=O)[C@H](C(C)C)NC2=O [BeKm-1] (H-RPTDIKCSESYQCFPVCKSRFGKTNGRCVNGFCDCF-OH; disulfide 7-28, 13-33, 17-35 (inferred); N-terminus and C-terminus assumed)
hiPS-CMs; 37 °C, vehicle 3.3 ± 1.7 sec, n = 8, mean ± SEM
  average interval between CaT: 4.9 ± 2.2 s
hiPS-CMs; F/F0 (Figure S4D), vehicle 1.8 ± 0.2, n = 8, mean ± SEM
  CaT amplitude: 0.8 ± 0.2
hiPS-CMs; Figure S4G
  cytoplasmic Ca^2+ handling (integration of Ca^2+ signals): non-significant decrease
hiPS-CMs; Poincaré plot, Figure S4B
  variability of CaT intervals: great variability
hiPS-CMs; tau of decay, Figure S4F
  kinetics of the CaT decay phase: no alterations
hiPS-CMs; vehicle 1.1 ± 0.1 s, n = 8, mean ± SEM
  CaT time to peak: 2.2 ± 0.4 s
[1]; 5 nM BeKm-1, 37 °C, vehicle 2.50 ± 0.20 Hz, n = 7, mean ± SEM, significant
  AP frequency: 0.70 ± 0.26 Hz
[1]; 5 nM application, Figure S2
  kinetics of AP parameter changes: changed according to similar kinetics
[1]; 5 nM vs vehicle, average
  maximal upstroke velocity, fold reduction: 1.5 -fold
[1]; 5 nM vs vehicle, spontaneous APs
  APD90 increase: 23%
[1]; 5 nM, representative time course, Figure S2
  restitution of AP parameters after toxin washout: rather rapid restitution of these parameters after toxin washout
[1]; 5 nM, spontaneous APs
  APD at 30% and 50% of repolarization: spared
[1]; 5 nM, spontaneous APs, vehicle 95.0 ± 8.4 ms, n = 7, mean ± SEM, not corrected for cycle length
  APD at 90% repolarization (APD90): 117.4 ± 11.3 ms
[1]; 5 nM, Poincaré plot
  APD90 variability: increased
[1]; 5 nM, Poincaré plot of consecutive APs
  AP rhythm variability: increase of rhythm variability
[1]; 5 nM, vehicle 6.9 ± 0.9 mV/s, n = 7, mean ± SEM
  maximal upstroke velocity (dV/dtmax): 4.6 ± 0.9 mV/s
[1]; 5 nM, vehicle 29.9 ± 3.1 mV, n = 7, mean ± SEM, not significant
  AP overshoot: 22.2 ± 6.4 mV
[1]; 5 nM, vehicle −52.2 ± 1.7 mV, n = 7, mean ± SEM
  maximum diastolic potential (MDP): −36.1 ± 2.3 mV
[1]; 100 nM, representative trace of single hiPS-CM
  beating / AP arrest: AP arrest; also recorded: complete beating arrest by a major membrane depolarization
[1]; spontaneously beating ventricular-like cells
  early afterdepolarizations (EADs): never observed
[1]; wash after 5 nM, n = 5
  reversibility on wash: fully restored all parameters
Rabbit heart
  QT interval in ECG: prolongs the QT interval
